Measurements: patent US20250051327A1, “MALT-1 MODULATORS” (EXSCIENTIA AI LIMITED, priority 2020, published 2025)

Assays:
[1] = molecular target: Recombinant human MALT-1 (amino acids 340-824) (Homo sapiens (Human), UniProt Q9UDY8); experiment: MALT-1 inhibition assay (fluorogenic substrate Ac-LRSR-Rh110-DP); assay type: biochemical; details: recombinant human MALT-1, substrate Ac-LRSR-Rh110-DP
How it was run: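 Reactions were started with fluorogenic substrate Ac-LRSR-Rh110-DP (10 μM final) against 3 nM enzyme and kept dark at 25° C for 60 minutes. IC50 values came from 4-parameter logistic fits of percent inhibition calculated from relative fluorescence units.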

[2] = tested on: IL-2 secretion by human effector memory T cells (TEM); experiment: Effector memory T cells IL-2 release assay; assay type: cell-based; details: T-cell; human CD4+ effector memory T cells, CD3/CD28 bead stimulation, 24 h; read-out: CD4TC IL2 IC50
How it was run: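 Human CD4+ effector memory T cells from healthy-donor buffy coats were stimulated with anti-CD3/CD28 Dynabeads and exposed to 10 semi-log compound doses (0.1% DMSO) for 24 h at 37 °C. Supernatant IL-2 was measured by HTRF, and IC50 came from a 4-parameter logistic fit to maximal IL-2. Viability was checked by flow cytometry.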

Chain of Recombinant human MALT-1 (amino acids 340-824) (Q9UDY8 340-824): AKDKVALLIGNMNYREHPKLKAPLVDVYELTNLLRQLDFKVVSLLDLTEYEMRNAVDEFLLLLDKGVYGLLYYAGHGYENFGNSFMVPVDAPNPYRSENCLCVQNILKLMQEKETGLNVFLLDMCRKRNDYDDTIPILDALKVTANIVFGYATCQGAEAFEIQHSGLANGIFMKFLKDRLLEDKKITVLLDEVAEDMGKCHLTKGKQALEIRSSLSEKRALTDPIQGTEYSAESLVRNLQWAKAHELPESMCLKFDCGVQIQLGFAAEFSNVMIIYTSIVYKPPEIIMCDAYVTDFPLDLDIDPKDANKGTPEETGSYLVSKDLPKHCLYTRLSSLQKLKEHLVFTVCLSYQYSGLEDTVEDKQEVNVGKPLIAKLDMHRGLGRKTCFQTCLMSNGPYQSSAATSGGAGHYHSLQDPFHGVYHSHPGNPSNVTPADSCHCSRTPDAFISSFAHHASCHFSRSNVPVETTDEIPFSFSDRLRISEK

IC50 [1] | IC50 [2] | SMILES
76 nM | 51 nM | CN(C(=O)[C@H]1CC[S@](=N)(=O)CC1)[C@@H](c1ccc(N2CCC(C)(C)c3c2cnc2cc(Cl)nn32)cc1)C(F)(F)F (relative stereo) [CPD0072785, (1rel-r,4rel-r)-N-[(1S)-1-(4-{4-chloro-13,13-dimethyl-2,3,7,10-tetraazatricyclo[7.4.0.0^2,6]trideca-1(9),3,5,7-tetraen-10-yl}phenyl)-2,2,2-trifluoroethyl]-1-imino-N-methyl-1-oxo-1λ^6-thiane-4-carboxamide]
370 nM | 538 nM | CN([C@@H](c1ccc(N2CCCc3c2cnc2cc(Cl)nn32)cc1)C(F)(F)F)S(C)(=O)=O [CPD0021581, N-[(1S)-1-(4-{4-chloro-2,3,7,10-tetraazatricyclo[7.4.0.0^2,6]trideca-1(9),3,5,7-tetraen-10-yl}phenyl)-2,2,2-trifluoroethyl]-N-methylmethanesulfonamide]
85 nM | 57 nM | COC[C@@]1(C)CCN(c2ccc([C@H](N(C)C(=O)[C@H]3CC[S@](=N)(=O)CC3)C(F)(F)F)cc2)c2cnc3cc(Cl)nn3c21 (relative stereo) [CPD0073134, (1rel-r,4rel-r)-N-[(1S)-1-[4-[(13rel-S)-4-chloro-13-(methoxymethyl)-13-methyl-2,3,7,10-tetrazatricyclo[7.4.0.0^2,6]trideca-1(9),3,5,7-tetraen-10-yl]phenyl]-2,2,2-trifluoro-ethyl]-1-imino-N-methyl-1-oxo-1λ^6-thiane-4-carboxamide]
271 nM | 894 nM | COc1cncc2c1CCCN2c1ccc(C(N(C)C(=O)C2CCS(=O)(=O)CC2)C(F)(F)F)cc1 (stereo in doubt) [CPD0021939, N-methyl-1,1-dioxo-N-[(1S)-2,2,2-trifluoro-1-[4-(5-methoxy-3,4-dihydro-2H-1,7-naphthyridin-1-yl)phenyl]ethyl]thiane-4-carboxamide]
61 nM | 112 nM | CN(C(=O)[C@@H]1CCC(=O)N1C)[C@@H](c1ccc(N2CCCc3c2cnc2cc(Cl)nn32)cc1)C(F)(F)F [CPD0073919, (2S)-N-[(1S)-1-(4-{4-chloro-2,3,7,10-tetraazatricyclo[7.4.0.0^2,6]trideca-1(9),3,5,7-tetraen-10-yl}phenyl)-2,2,2-trifluoroethyl]-N,1-dimethyl-5-oxopyrrolidine-2-carboxamide]
68 nM | 107 nM | CN(C(=O)[C@H]1CCN(S(C)(=O)=O)C1)[C@@H](c1ccc(N2CCCc3c2cnc2cc(Cl)nn32)cc1)C(F)(F)F (relative stereo) [CPD0073143, (3rel-S)-N-[(1S)-1-(4-{4-chloro-2,3,7,10-tetraazatricyclo[7.4.0.0^2,6]trideca-1(9),3,5,7-tetraen-10-yl}phenyl)-2,2,2-trifluoroethyl]-1-methanesulfonyl-N-methylpyrrolidine-3-carboxamide]
126 nM | 158 nM | COc1ccc2ncc(Nc3ccc([C@@H](N(C)C(=O)[C@H]4CC[S@@](=N)(=O)CC4)C(F)(F)F)cc3)c([C@H](C)OC)c2n1 (relative stereo) [CPD0077186, (1 rel-r,4rel-s)-1-imino-N-methyl-1-oxo-N-[(1R)-2,2,2-trifluoro-1-[4-({6-methoxy-4-[(1 rel-S)-1-methoxyethyl]-1,5-naphthyridin-3-yl}amino)phenyl]ethyl]-1λ^6-thiane-4-carboxamide]
2120 nM | 3280 nM | CN(C(=O)C1CCS(=O)(=O)CC1)[C@@H](c1ccc(N2CCCc3c2cnc2c(Cl)cnn32)cc1)C(F)(F)F [CPD0021751, N-[(1S)-1-(4-{5-chloro-2,3,7,10-tetraazatricyclo[7.4.0.0^2,6]trideca-1(9),3,5,7-tetraen-10-yl}phenyl)-2,2,2-trifluoroethyl]-N-methyl-1,1-dioxo-1λ^6-thiane-4-carboxamide]
